Results from the CheMixHub viscosity set.
“And” between values parts separate entries of the source, which are not always exact repeats. Identical values can stand only once. ± gives the uncertainty stated by the source.

Assay: xn = mol fraction of the nth substance listed
Settings: 101.3 kPa

O=[N+]([O-])c1ccccc1 + CCCCC
Settings | viscosity
293.15 K, x1 = 0.0998 | 0.272 ± 0.002 mPa·s
293.15 K, x1 = 0.1994 | 0.336 ± 0.003 mPa·s
293.15 K, x1 = 0.5984 | 0.79 ± 0.005 mPa·s
293.15 K, x1 = 0.6995 | 0.972 ± 0.006 mPa·s
293.15 K, x1 = 0.7997 | 1.221 ± 0.007 mPa·s
293.15 K, x1 = 0.9 | 1.549 ± 0.009 mPa·s
297.15 K, x1 = 0.0998 | 0.262 ± 0.002 mPa·s
297.15 K, x1 = 0.1994 | 0.322 ± 0.003 mPa·s
297.15 K, x1 = 0.299 | 0.42 ± 0.003 mPa·s
297.15 K, x1 = 0.3491 | 0.52 ± 0.004 mPa·s
297.15 K, x1 = 0.399 | 0.596 ± 0.004 mPa·s
297.15 K, x1 = 0.4589 | 0.603 ± 0.004 mPa·s
297.15 K, x1 = 0.494 | 0.623 ± 0.004 mPa·s
297.15 K, x1 = 0.5984 | 0.748 ± 0.005 mPa·s
297.15 K, x1 = 0.6995 | 0.921 ± 0.006 mPa·s
297.15 K, x1 = 0.7997 | 1.15 ± 0.007 mPa·s
297.15 K, x1 = 0.9 | 1.452 ± 0.009 mPa·s
297.16 K, x1 = 0.383 | 0.62 ± 0.15 mPa·s
297.17 K, x1 = 0.299 | 0.42 ± 0.003 mPa·s
297.17 K, x1 = 0.3491 | 0.517 ± 0.004 mPa·s
297.17 K, x1 = 0.383 | 0.619 ± 0.16 mPa·s and 0.617 ± 0.15 mPa·s and 0.61 ± 0.15 mPa·s
297.17 K, x1 = 0.3832 | 0.614 ± 0.004 mPa·s
297.17 K, x1 = 0.399 | 0.591 ± 0.004 mPa·s
297.17 K, x1 = 0.4589 | 0.602 ± 0.004 mPa·s
297.17 K, x1 = 0.494 | 0.623 ± 0.004 mPa·s
297.18 K, x1 = 0.383 | 0.604 ± 0.12 mPa·s
297.2 K, x1 = 0.383 | 0.593 ± 0.1 mPa·s
297.23 K, x1 = 0.383 | 0.583 ± 0.058 mPa·s
297.29 K, x1 = 0.383 | 0.565 ± 0.046 mPa·s
297.34 K, x1 = 0.383 | 0.558 ± 0.025 mPa·s
297.44 K, x1 = 0.383 | 0.546 ± 0.017 mPa·s
297.6 K, x1 = 0.383 | 0.535 ± 0.01 mPa·s
297.65 K, x1 = 0.0998 | 0.261 ± 0.002 mPa·s
297.65 K, x1 = 0.1994 | 0.321 ± 0.003 mPa·s
297.65 K, x1 = 0.299 | 0.415 ± 0.003 mPa·s
297.65 K, x1 = 0.3491 | 0.488 ± 0.004 mPa·s
297.65 K, x1 = 0.3832 | 0.532 ± 0.004 mPa·s
297.65 K, x1 = 0.399 | 0.55 ± 0.004 mPa·s
297.65 K, x1 = 0.4589 | 0.592 ± 0.004 mPa·s
297.65 K, x1 = 0.494 | 0.616 ± 0.004 mPa·s
297.65 K, x1 = 0.5984 | 0.743 ± 0.005 mPa·s
297.65 K, x1 = 0.6995 | 0.915 ± 0.006 mPa·s
297.65 K, x1 = 0.7997 | 1.142 ± 0.007 mPa·s
297.65 K, x1 = 0.9 | 1.441 ± 0.009 mPa·s
298 K, x1 = 0.383 | 0.52 ± 0.006 mPa·s
298.15 K, x1 = 0.0998 | 0.26 ± 0.002 mPa·s
298.15 K, x1 = 0.1994 | 0.319 ± 0.003 mPa·s
298.15 K, x1 = 0.299 | 0.411 ± 0.003 mPa·s
298.15 K, x1 = 0.3491 | 0.476 ± 0.003 mPa·s
298.15 K, x1 = 0.3832 | 0.515 ± 0.004 mPa·s
298.15 K, x1 = 0.399 | 0.536 ± 0.004 mPa·s
298.15 K, x1 = 0.4589 | 0.584 ± 0.004 mPa·s
298.15 K, x1 = 0.494 | 0.61 ± 0.004 mPa·s
298.15 K, x1 = 0.5984 | 0.738 ± 0.005 mPa·s
298.15 K, x1 = 0.6995 | 0.909 ± 0.006 mPa·s
298.15 K, x1 = 0.7997 | 1.134 ± 0.007 mPa·s
298.15 K, x1 = 0.9 | 1.43 ± 0.009 mPa·s
298.76 K, x1 = 0.383 | 0.504 ± 0.005 mPa·s
299.15 K, x1 = 0.0998 | 0.257 ± 0.002 mPa·s
299.15 K, x1 = 0.1994 | 0.316 ± 0.003 mPa·s
299.15 K, x1 = 0.299 | 0.404 ± 0.003 mPa·s
299.15 K, x1 = 0.3491 | 0.461 ± 0.003 mPa·s
299.15 K, x1 = 0.3832 | 0.498 ± 0.004 mPa·s
299.15 K, x1 = 0.399 | 0.518 ± 0.004 mPa·s
299.15 K, x1 = 0.4589 | 0.571 ± 0.004 mPa·s
299.15 K, x1 = 0.494 | 0.6 ± 0.004 mPa·s
299.15 K, x1 = 0.5984 | 0.729 ± 0.005 mPa·s
299.15 K, x1 = 0.6995 | 0.897 ± 0.006 mPa·s
299.15 K, x1 = 0.7997 | 1.118 ± 0.007 mPa·s
299.15 K, x1 = 0.9 | 1.406 ± 0.008 mPa·s
299.88 K, x1 = 0.383 | 0.489 ± 0.004 mPa·s
302.28 K, x1 = 0.383 | 0.466 ± 0.004 mPa·s
305.15 K, x1 = 0.0998 | 0.245 ± 0.002 mPa·s
305.15 K, x1 = 0.1994 | 0.298 ± 0.002 mPa·s
305.15 K, x1 = 0.299 | 0.373 ± 0.003 mPa·s
305.15 K, x1 = 0.3491 | 0.417 ± 0.003 mPa·s
305.15 K, x1 = 0.3832 | 0.447 ± 0.003 mPa·s
305.15 K, x1 = 0.399 | 0.466 ± 0.003 mPa·s
305.15 K, x1 = 0.4589 | 0.52 ± 0.004 mPa·s
305.15 K, x1 = 0.494 | 0.551 ± 0.004 mPa·s
305.15 K, x1 = 0.5984 | 0.677 ± 0.005 mPa·s
305.15 K, x1 = 0.6995 | 0.831 ± 0.005 mPa·s
305.15 K, x1 = 0.7997 | 1.031 ± 0.006 mPa·s
305.15 K, x1 = 0.9 | 1.284 ± 0.008 mPa·s
305.99 K, x1 = 0.383 | 0.442 ± 0.003 mPa·s
313.15 K, x1 = 0.0998 | 0.229 ± 0.002 mPa·s
313.15 K, x1 = 0.1994 | 0.277 ± 0.002 mPa·s
313.15 K, x1 = 0.299 | 0.342 ± 0.003 mPa·s
313.15 K, x1 = 0.3491 | 0.38 ± 0.003 mPa·s
313.15 K, x1 = 0.3832 | 0.403 ± 0.003 mPa·s
313.15 K, x1 = 0.399 | 0.424 ± 0.003 mPa·s
313.15 K, x1 = 0.4589 | 0.471 ± 0.003 mPa·s
313.15 K, x1 = 0.494 | 0.503 ± 0.004 mPa·s
313.15 K, x1 = 0.5984 | 0.616 ± 0.004 mPa·s
313.15 K, x1 = 0.6995 | 0.753 ± 0.005 mPa·s
313.15 K, x1 = 0.7997 | 0.929 ± 0.006 mPa·s
313.15 K, x1 = 0.9 | 1.143 ± 0.007 mPa·s
